Data published in patent US5344926A, “Process for producing staurosporine derivatives” (Kyowa Hakko Kogyo Co., Ltd., priority 1992, dated 1994).
≈ marks a conversion by molar mass, not a printed value. Where “and” joins values, the source holds several entries; their conditions need not be identical. Equal entries are not always repeated.

Tests used:
Protein kinase C = assay: Protein Kinase C Inhibitory Activity (crude enzyme partially purified from rat brain); conditions: for selective inhibitory activity on protein kinase C, compared with UCN-01: PKC vs PKA; for IC50 PKC: pH 7.5, 30° C., 3 minutes; for PKA/PKC: ratio of IC50 PKA to IC50 PKC
Method: (1) Protein Kinase C Inhibitory Activity
Protein kinase C inhibitory activity (PKC) was measured by the method of Kikkawa, et al. (Journal of Biological Chemistry, 257, 13341 (1982)].
That is, 10 μl of a test solution containing UCN-01, Compound No. 1-α or Compound No. 1-β was added to 250 μl of a solution containing 2.5 μmoles of magnesium acetate, 50 μg of Histone Type IIS (manufactured by Sigma Co., Ltd.), 20 μg of phosphatidyl serine, 0.8 μg of diolein, 25 nmoles of CaCl2, 5 μg of crude enzyme (partically purified from rat brain according to the method of Kikkawa, et al.) and 5 μmoles of Tris-hydrochloride buffer (pH 7.5), followed by incubation at 30° C. for 3 minutes. Then, phosphorylation was initiated by addition of 1.25 nmoles of [γ-^32 p]ATP(5 to 10×10^3 cpm/nmole), followed by incubation at 30° C. for 3 minutes. The reaction was stopped by adding 25% trichloroacetic acid (TCA), and the reaction solution was filtered through a cellulose acetate membrane (pore size of 0.45 μm) (manufactured by Toyo Filter Paper Co., Ltd.). After the membrane was washed four times with 5% TCA, radioactivity remaining on the membrane was measured. As a control, the same procedure as above was repeated without addition of the test solution and radioactivity was likewise measured. A concentration of the test solution showing 50% inhibition as compared with the control was expressed as IC50.

Protein kinase A = molecular target: T1, Protein kinase A (Bos taurus, UniProt P00517); assay: Protein Kinase A Inhibitory Activity (crude enzyme partially purified from calf heart); assay type: biochemical; conditions: pH 6.8
T1 construct: partially purified from calf heart; from tissue; host or cells: calf heart, crude enzyme, partially purified
Method: (2) Protein Kinase A Inhibitory Activity
Protein kinase A inhibitory activity (PKA) was measured according to the method of Kuo, et al. [Biochemistry, 64, 1349 (1969)].
Subsequent procedures were conducted in a manner similar to the case of measuring protein kinase C inhibitory activity described above to determine IC50.

platelets = assay: Platelet increasing activity in Balb/c mice; assay type: in vivo; conditions: 20 mg/kg i.p. once a day for 5 days; for Number of platelets, individual mouse: 20 mg/kg; for Number of platelets (mean): mean of six mice
Method: Platelet increasing activity of Compound (I-1) was examined. Compound No. 1-α obtained in Example 13 was suspended in 0.3% carboxymethylcellulose aqueous solution containing 5% Tween 80. 0.2 ml of the suspension was intraperitoneally administered to six Balb/c mice (male, aged 7 weeks) at a dosage of 20 mg/kg once a day for 5 days. The blood (20 μl) was collected from the ophthalmic […] at the times, just before the test compound administration (Day 0), the 7th day (Day 7), the 14th day (Day 14), the 17th day (Day 17) and the 28th day (Day 28). The number of platelets was counted by a microcellcounter.

HeLa S3 cells = assay: Growth Inhibition Test on HeLa S3 Cells; assay type: cell-based; conditions: Homo sapiens, 1 h exposure, then 72 h incubation, Neutral Red, read-out: IC50 (cell growth inhibition)
Method: Growth Inhibition Test on HeLa S3 Cells
HaLa S3 cells were suspended in an MEM medium containing 10% fetal calf serum and 2 mM glutamine at a concentration of 3×10^4 cells/ml, and 0.1 ml of the cell suspension was put into each well of a 96-well microtiter plate.
After culturing at 37° C. overnight in a carbon dioxide gas incubator, 0.05 ml of a test sample appropriately diluted with the medium was added to each well. The cells were further cultured for one hour in the carbon dioxide gas incubator and the culture supernatant was removed. The residue was washed once with a phosphate buffer saline [PBS(-)] and 0.1 ml of a fresh medium was added to each well, and the cells were further incubated at 37° C. for 72 hours in the carbon dioxide gas incubator. After removal of the supernatant, 0.1 ml of culture medium containing 0.02% Neutral Red was added to each well, and the cells were further incubated at 37° C. for one hour in the carbon dioxide gas incubator to stain the cells. After removal of the culture supernatant, each well was washed once with a physiological saline, and the dye was extracted with 0.001N HCl/30% methanol. Absorbance of the extract at 550 nm was measured with a microplate reader. The cell growth inhibition percentage was calculated according to the following formula from the absorbance of the extract of the cells treated with the test compound in various concentrations and that of intact cells. [formula]
From the cell growth inhibition percentage thus obtained, the concentration of the test compound which inhibits cell growth by 50% (IC50) was determined.

[1] = Day 0 (just before administration)

For `COC1C(N(C)CCO)CC2OC1(C)n1c3ccccc3c3c4c(c5c6ccccc6n2c5c31)C(=O)NC4O` (stereo not drawn) [Compound No. 1-α], the “selective inhibitory activity on protein kinase C, compared with UCN-01” value (Protein kinase C) was “have a selective inhibitory activity on protein kinase C, compared with UCN-01”, the “IC50 PKC” value (Protein kinase C) was 2.2 ng/mL (≈ 4.18 nM) and the PKA/PKC (Protein kinase C) was 118. For the same molecule, the IC50 (Protein kinase A) was 494 nM, the “Number of platelets, relative value” (platelets; Day 0 (= 100)) was 100% and the “Number of platelets, individual mouse” value (platelets; [1]) was 81.8 and 89.6 and 75.0 and 89.7 and 97.0 and 86.5. The “Number of platelets (mean)” value (platelets; [1]) was 86.6, the “Number of platelets, relative value” (platelets; Day 7, relative to Day 0) was 156.4% and the “Number of platelets, individual mouse” value (platelets; Day 7) was 128.3 and 119.2 and 130.1 and 153.8 and 141.0 and 140.1. For the same molecule, the “Number of platelets (mean)” value (platelets; Day 7) was 135.4, the “Number of platelets, relative value” (platelets; Day 14, relative to Day 0) was 139.8% and the “Number of platelets, individual mouse” value (platelets; Day 14) was 113.7 and 122.5 and 118.8 and 145.9 and 121.2 and 101.7. For the same molecule, the “Number of platelets (mean)” value (platelets; Day 14) was 121.1, the “Number of platelets, relative value” (platelets; Day 17, relative to Day 0) was 146.7% and the “Number of platelets, individual mouse” value (platelets; Day 17) was 115.0 and 113.6 and 111.9 and 159.1 and 137.1 and 125.5. The “Number of platelets (mean)” value (platelets; Day 17) was 127.0, the “Number of platelets, relative value” (platelets; Day 28, relative to Day 0) was 135.1% and the “Number of platelets, individual mouse” value (platelets; Day 28) was 117.3 and 123.5 and 119.0 and 113.7 and 105.8 and 125.3. For the same molecule, the “Number of platelets (mean)” value (platelets; Day 28) was 117.4.

With `COC1C(N(C)CCO)CC2OC1(C)n1c3ccccc3c3c4c(c5c6ccccc6n2c5c31)C(=O)NC4O` (stereo not drawn) [Compound No. 1-β] the “selective inhibitory activity on protein kinase C, compared with UCN-01” value (Protein kinase C) was “have a selective inhibitory activity on protein kinase C, compared with UCN-01”, the “IC50 PKC” value (Protein kinase C) was 19 ng/mL (≈ 36.1 nM) and the PKA/PKC (Protein kinase C) was 20. The IC50 (Protein kinase A) was 703 nM.

`COC1C(N(C)CCO)CC2OC1(C)n1c3ccccc3c3c4c(c5c6ccccc6n2c5c31)C(=O)NC4O` (stereo not drawn) [Compound No. 1] showed an IC50 (HeLa S3 cells) of 2200 nM.

In the case of `COC1C(N(C)CC(O)CO)CC2OC1(C)n1c3ccccc3c3c4c(c5c6ccccc6n2c5c31)C(=O)NC4O` (stereo not drawn) [Compound No. 2], the IC50 (HeLa S3 cells) is reported as 1900 nM.

`COC1C(N(C)CCCC(=O)O)CC2OC1(C)n1c3ccccc3c3c4c(c5c6ccccc6n2c5c31)C(=O)NC4O` (stereo not drawn) [Compound No. 3] was tested, and the IC50 (HeLa S3 cells) was 4600 nM.

`COC1C(N(C)C(=O)CN2CCOCC2)CC2OC1(C)n1c3ccccc3c3c4c(c5c6ccccc6n2c5c31)C(=O)NC4O` (stereo not drawn) [Compound No. 6] was tested, and the IC50 (HeLa S3 cells) was 2200 nM.

In the case of `COC1C(N(C)C(=O)CN(C)C)CC2OC1(C)n1c3ccccc3c3c4c(c5c6ccccc6n2c5c31)C(=O)NC4O` (stereo not drawn) [Compound No. 7], the IC50 (HeLa S3 cells) is reported as 1500 nM.

`CN[C@@H]1C[C@H]2O[C@@](C)([C@@H]1OC)n1c3ccccc3c3c4c(c5c6ccccc6n2c5c31)C(=O)N[C@@H]4O` [UCN-01, reference compound] was tested, and the “IC50 PKC” value (Protein kinase C) was 2 ng/mL (≈ 4.14 nM) and the PKA/PKC (Protein kinase C) was 10.
